Assay results published in patent US20250136991A1, “METHOD OF MAKING BONE AND CARTILAGE” (priority 2022, published 2025).
Peptide text beside a SMILES is read from it. * marks the point of attachment. Cbz = O=C(OCc1ccccc1)*

How the values were obtained:
[1] = biological target: Mast4-PDZ P628A/Y634A (UniProt O15021)
[2] = tested on: Mast4; assay: Mast4-PDZ expression in C3H10T1/2 cells transfected with Mast4-PDZ and GSK-3β, CHIR-99021 treatment (western blot); type: cell-based, murine; conditions: CHIR-99021 10 μM for 9 h (FIG. 4d)
Protocol: Cell lysates were immunoprecipitated with Flag antibody and immunoblotted with the indicated antibodies. k MC3T3-E1 cells were transfected with Mast4-PDZ WT and Δ632-636, followed by treatment of Wnt3a conditioned medium (2.5 h). l 6xOSE-Luc, Mast4-PDZ WT and Δ632-636 were transfected to C3H10T1/2 cells, followed by treatment of Wnt3a conditioned medium (18 h). […] Unpaired two-tailed Student's t test (P<0.05) with Benjamini-Hochberg correction for multiple tests was conducted for all statistical analyses. b-k The representative results were obtained from at least three independent experiments. TCL: total cell lysates.
For the immunoprecipitation assay, cell extracts were incubated with the indicated primary antibodies overnight at 4° C. Antibody-bound proteins were precipitated with Dynabeads Protein G (Invitrogen). Cells were lysed in a RIPA buffer containing protease inhibitor cocktail (Complete; Roche). Samples were separated by SDS-PAGE, followed by electrotransfer to polyvinylidene difluoride membranes (PVDF; Millipore). The membrane was blocked for 1 h at room temperature and incubated overnight at 4° C. with the primary antibodies. Horseradish peroxidase-conjugated antibodies (Millipore) were used as secondary antibodies. The peroxidase reaction products were visualized with WESTZOL (Intron). All signals were detected by Amersham Imager 600 (GE Healthcare Life Sciences).

[3] = tested on: Mast4; assay: Mast4 degradation (cycloheximide chase) in Mast4-PDZ-overexpressing C3H10T1/2 cells with CHIR-99021; type: cell-based, murine; design: dose or concentration left out as unconfirmed; conditions: (FIG. 22d)
Excerpt: FIGS. 22a-22e show Mast4 induction during osteogenesis and GSK-3b regulation of Mast4 expression. (a) The schematic representation of osteogenic differentiation of C3H10T1/2 cells. (b) The indicated C3H10T1/2 cells were differentiated into osteoblasts for 10 days, followed by Alizarin Red S staining. (c) C3H10T1/2 cells were differentiated into osteoblasts for 10 days, followed by western blot analysis for the expression of Mast4 and key Wnt signaling molecules. (d) Mast4-PDZ-overexpressing C3H10T1/2 cells were treated with cycloheximide (CHX; […]) for the indicated time in the absence or presence of CHIR-99021 ([…]). (e) The wild-type and GSK-3b-depleted HA-Mast4-PDZ-overexpressing C3H10T1/2 cells were treated with MG-132 ([…] for 4 h) and CHIR-99021 ([…]). (b-d) The representative result were obtained from at least three separate experiments.
For the immunoprecipitation assay, cell extracts were incubated with the indicated primary antibodies overnight at 4° C. Antibody-bound proteins were precipitated with Dynabeads Protein G (Invitrogen). Cells were lysed in a RIPA buffer containing protease inhibitor cocktail (Complete; Roche). Samples were separated by SDS-PAGE, followed by electrotransfer to polyvinylidene difluoride membranes (PVDF; Millipore). […] All signals were detected by Amersham Imager 600 (GE Healthcare Life Sciences).

[4] = tested on: Mast4; assay: Mast4 expression in human primary chondrocytes treated with TGF-β1; type: cell-based; conditions: TGF-β1 5 ng/ml for 24 h and 48 h (FIG. 3g)
Protocol: (§1) FIGS. 3a-3g show TGF-β1-induced suppression of Mast4 enhances chondrogenesis by increasing Sox9-Smad3 association. a Sox9 and Smad3 were co-transfected to wild-type and Mast4-depleted C3H10T1/2 cells, followed by TGF-β1 treatment (5 ng/ml for 30 minutes). Sox9 was immunoprecipitated using HA antibody. Band intensities representing GFP-Smad3 and HA-Sox9 expression level in the immunoprecipitates were converted by densitometry using ImageJ software into the ratio of Smad3 to Sox9. Data are reported as mean±SD of three independent experiments (n=3). Unpaired two-tailed Student's t test (P<0.05) was conducted for statistical analysis. b Smad3 ChIP on Col2a1 gene assay was performed in differentiating C3H10T1/2 cells for 6 days. c Mast4 expression was examined by western blot and RT-PCR of C3H10T1/2 cells treated with TGF-β1 for 48 h. d Luciferase assay was conducted in undifferentiated C3H10T1/2 cells. Vactosertib (0.5 μM) was pre-treated for 2 h prior to TGF-β1 (5 ng/ml) treatment for 24 h. e Smad3 ChIP assay on Mast4 gene was conducted in C3H10T1/2 cells undergoing chondrogenic differentiation for 6 days. […]

[5] = tested on: Mast4 promoter; assay: Mast4 promoter luciferase assay in undifferentiated C3H10T1/2 cells; type: cell-based, murine; conditions: TGF-β1 5 ng/ml for 24 h (FIG. 3d)
Protocol: as §1, with “cells.” for “cells. Vactosertib (0.5 μM) was pre-treated for 2 h prior to TGF-β1 (5 ng/ml) treatment for 24 h. e Smad3 ChIP assay on Mast4 gene was conducted in C3H10T1/2 cells undergoing chondrogenic differentiation for 6 days.”
C3H10T1/2 cells were transiently transfected with 4xCol2a1-luc, Smad3/4-responsive promoter (CAGA)12-luc, SBE-luc, 6xOSE-luc, MAST4-promoter luciferase report plasmids, HA-MAST4 PDZ, Myc-Sox9 WT/S494A/S494D plasmids using polyethylenimine (Polysciences). […] The luciferase activities were analyzed using the Luciferase Assay System kit (Promega) according to the manufacturer's protocol. […]

[6] = tested on: Mast4; assay: Mast4 expression by western blot and RT-PCR in C3H10T1/2 cells treated with TGF-β1; type: cell-based, murine; conditions: TGF-β1 for 48 h (FIG. 3c)
Protocol: FIGS. 3a-3g show TGF-β1-induced suppression of Mast4 enhances chondrogenesis by increasing Sox9-Smad3 association. a Sox9 and Smad3 were co-transfected to wild-type and Mast4-depleted C3H10T1/2 cells, followed by TGF-β1 treatment (5 ng/ml for 30 minutes). Sox9 was immunoprecipitated using HA antibody. Band intensities representing GFP-Smad3 and HA-Sox9 expression level in the immunoprecipitates were converted by densitometry using ImageJ software into the ratio of Smad3 to Sox9. Data are reported as mean±SD of three independent experiments (n=3). […]
Total RNA was prepared using EasyBlue (Boca Scientific). […] Quantitative real-time PCR was performed using Power SYBR Green PCR Master Mix (Applied Biosystems) on the QuantStudio 5 Real-Time PCR Instrument (Applied Biosystems). The mRNA levels of various genes were measured in triplicate and normalized with Gapdh. […]
(§2) For the immunoprecipitation assay, cell extracts were incubated with the indicated primary antibodies overnight at 4° C. […] All signals were detected by Amersham Imager 600 (GE Healthcare Life Sciences).

[7] = tested on: Mast4 promoter; assay: Smad3 ChIP assay on Mast4 gene in differentiating C3H10T1/2 cells; type: cell-based, murine; conditions: 6 days chondrogenic differentiation, TGF-β1 5 ng/ml for 48 h (FIG. 3e, FIG. 20)
Protocol: as §1

[8] = tested on: Sox9; assay: Mast4-induced Sox9 degradation in C3H10T1/2 cells with MG-132 treatment (western blot); type: cell-based, murine; conditions: C3H10T1/2 cells transfected with Myc-Sox9 and Mast4-PDZ, MG-132 10 mM for 6 h (FIG. 16e)
Protocol: (a) The indicated C3H10T1/2 cells were differentiated into chondrocytes for 6 days, followed by Sox9 ChIP on the Col2a1 gene. (b) 4xCol2a1-luc was transiently overexpressed in LPCX control and Mast4 PDZ-overexpressing C3H10T1/2 cells, followed by TGF-b1 treatment (3 ng/ml for 24 h). (a and b) Data are representative mean±SD of three independent experiments, each conducted in triplicate (n=3). Unpaired two-tailed Student's t test (P<0.05) with Benjamini-Hochberg correction for multiple tests was conducted for all statistical analyses. P values versus WT. (c) Full-length (HA-Mast4-FULL) and truncated Mast4 (HA-Mast4-PDZ) together with siMAST4 (50 pmol) that targets exogenous Mast4 (human) were co-transfected with Myc-Sox9 into C3H10T1/2 cells. Due to inefficient detection of full length Mast4 with HA antibody, Mast4 antibody which recognizes the C-terminus was used. (d) The indicated C3H10T1/2 cells were differentiated to chondrocytes for 6 days, followed by MG-132 ([…] for 6 h) treatment. Endogenous Sox9 was immunoprecipitated, and the complexes were analyzed by western blot using phospho-serine and Sox9 antibodies. […]
as §2

Chain of Mast4-PDZ P628A/Y634A (O15021 whole entry P628A/Y634A, looked up): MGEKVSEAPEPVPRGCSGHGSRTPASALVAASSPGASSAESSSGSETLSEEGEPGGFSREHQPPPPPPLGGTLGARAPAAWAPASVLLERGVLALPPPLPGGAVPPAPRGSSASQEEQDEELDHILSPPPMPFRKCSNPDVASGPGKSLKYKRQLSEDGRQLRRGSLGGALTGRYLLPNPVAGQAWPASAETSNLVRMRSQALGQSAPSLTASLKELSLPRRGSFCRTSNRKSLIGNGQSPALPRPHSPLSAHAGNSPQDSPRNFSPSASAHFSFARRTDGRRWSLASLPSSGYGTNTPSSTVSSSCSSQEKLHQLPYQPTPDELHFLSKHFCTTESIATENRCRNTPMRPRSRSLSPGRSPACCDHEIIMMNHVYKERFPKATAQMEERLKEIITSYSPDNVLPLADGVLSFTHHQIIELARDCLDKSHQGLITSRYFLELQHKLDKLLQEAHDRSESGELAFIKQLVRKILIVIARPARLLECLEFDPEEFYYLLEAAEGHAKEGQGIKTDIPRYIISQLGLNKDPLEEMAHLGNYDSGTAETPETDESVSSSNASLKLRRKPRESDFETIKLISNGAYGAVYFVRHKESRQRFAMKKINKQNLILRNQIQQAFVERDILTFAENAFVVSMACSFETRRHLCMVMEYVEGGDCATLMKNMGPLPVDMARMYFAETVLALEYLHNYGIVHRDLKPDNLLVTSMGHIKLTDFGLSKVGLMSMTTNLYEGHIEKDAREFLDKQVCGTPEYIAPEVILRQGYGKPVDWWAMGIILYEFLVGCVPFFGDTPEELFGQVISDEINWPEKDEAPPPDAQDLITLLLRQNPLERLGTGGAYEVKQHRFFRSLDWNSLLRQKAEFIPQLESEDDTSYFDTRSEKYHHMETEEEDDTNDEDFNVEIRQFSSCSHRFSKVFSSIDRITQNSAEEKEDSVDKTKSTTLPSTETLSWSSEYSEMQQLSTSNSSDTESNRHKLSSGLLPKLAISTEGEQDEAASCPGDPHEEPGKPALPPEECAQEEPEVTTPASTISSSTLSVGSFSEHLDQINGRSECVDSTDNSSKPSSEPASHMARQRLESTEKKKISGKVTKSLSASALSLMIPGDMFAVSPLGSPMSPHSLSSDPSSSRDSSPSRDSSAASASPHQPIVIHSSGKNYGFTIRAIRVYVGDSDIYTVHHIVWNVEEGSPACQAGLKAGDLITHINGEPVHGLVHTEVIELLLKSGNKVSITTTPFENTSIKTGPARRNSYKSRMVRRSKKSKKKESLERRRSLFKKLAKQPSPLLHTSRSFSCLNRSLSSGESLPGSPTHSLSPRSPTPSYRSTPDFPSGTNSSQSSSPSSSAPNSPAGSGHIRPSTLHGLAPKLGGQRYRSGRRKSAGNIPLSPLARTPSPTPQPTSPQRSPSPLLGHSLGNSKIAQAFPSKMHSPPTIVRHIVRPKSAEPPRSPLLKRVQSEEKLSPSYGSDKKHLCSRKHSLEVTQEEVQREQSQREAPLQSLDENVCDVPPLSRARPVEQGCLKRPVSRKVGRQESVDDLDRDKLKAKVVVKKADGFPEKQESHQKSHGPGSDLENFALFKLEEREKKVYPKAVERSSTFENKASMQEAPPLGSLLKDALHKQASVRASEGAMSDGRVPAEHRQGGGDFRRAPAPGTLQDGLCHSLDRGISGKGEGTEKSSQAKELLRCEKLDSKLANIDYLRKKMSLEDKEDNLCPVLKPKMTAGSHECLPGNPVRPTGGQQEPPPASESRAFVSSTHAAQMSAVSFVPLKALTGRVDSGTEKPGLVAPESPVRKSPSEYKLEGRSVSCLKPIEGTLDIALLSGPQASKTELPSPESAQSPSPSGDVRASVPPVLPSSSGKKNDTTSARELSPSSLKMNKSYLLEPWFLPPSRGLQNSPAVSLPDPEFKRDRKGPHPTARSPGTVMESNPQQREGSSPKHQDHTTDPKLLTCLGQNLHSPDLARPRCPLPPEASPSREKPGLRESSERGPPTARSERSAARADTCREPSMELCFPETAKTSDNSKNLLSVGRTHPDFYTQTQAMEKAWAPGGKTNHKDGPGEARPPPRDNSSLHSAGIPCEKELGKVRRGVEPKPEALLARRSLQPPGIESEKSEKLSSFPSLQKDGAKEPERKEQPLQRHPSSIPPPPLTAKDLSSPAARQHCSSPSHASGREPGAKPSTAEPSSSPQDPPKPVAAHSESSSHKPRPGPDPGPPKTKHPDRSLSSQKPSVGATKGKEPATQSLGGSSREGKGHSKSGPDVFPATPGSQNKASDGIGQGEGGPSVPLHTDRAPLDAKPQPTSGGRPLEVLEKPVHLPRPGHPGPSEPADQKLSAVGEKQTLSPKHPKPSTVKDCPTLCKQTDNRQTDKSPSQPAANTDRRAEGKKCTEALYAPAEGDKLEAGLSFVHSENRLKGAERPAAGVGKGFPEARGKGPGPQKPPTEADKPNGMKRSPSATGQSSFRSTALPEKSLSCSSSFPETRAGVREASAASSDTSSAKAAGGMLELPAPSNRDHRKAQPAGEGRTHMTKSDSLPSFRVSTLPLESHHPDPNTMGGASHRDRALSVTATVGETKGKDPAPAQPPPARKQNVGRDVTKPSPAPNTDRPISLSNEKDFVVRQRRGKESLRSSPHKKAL

Smurf1
Smurf1-mediated Mast4 degradation [1]: mutation of PY-like motif in the kinase domain of Mast4 (P628A/Y634A) prevented Smurf1-mediated Mast4 degradation

Cc1c[nH]c(-c2cnc(NCCNc3ccc(C#N)cn3)nc2-c2ccc(Cl)cc2Cl)n1 [GSK-3β inhibitor, CHIR-99021]
Mast4 expression [2]: dramatically increased
Mast4 degradation [3]: significantly delayed

TGF-β1: TGF-β1 protein (R&D Systems) used to treat cells
Mast4 mRNA expression level [4]: gradual reduction
Mast4 promoter activity [5]: suppressed
mRNA and protein expression of Mast4 [6]: markedly suppressed
Smad3 occupancy at the Mast4 promoter [7]: significantly increased

CC(C)C[C@@H](C=O)NC(=O)[C@H](CC(C)C)NC(=O)[C@H](CC(C)C)NC(=O)OCc1ccccc1 [MG-132] (Cbz-Leu-Leu-Leu-aldehyde)
Mast4-induced Sox9 degradation [8]: restored
